Results: patent US20260209260A1, “VECTORIZED NHC IRIDIUM(III) COMPLEXES AND USE THEREOF IN PHOTODYNAMIC THERAPY AND/OR DIAGNOSTIC” (CENTRE NATIONAL DE LA RECHERCHE SCIENTIFIQUE, priority 2022, published 2026)
Where “and” joins values, the source holds several entries; their conditions need not be identical. Equal values may be shown once. Read-outs that look alike come from different tables or passages of the source.

How the values were obtained:
[1] = tested on: non-tumor cells (NIH-3T3 and MC3T3); assay: Cell viability assay (MTT), summary over the non-tumor models; assay type: cell-based, Murine; conditions: for GI50: blue light 458 nm, read-out: GI50 mean over non-tumor models, irradiated; for mean PI value in NIH-3T3 and MC3T3 non-tumoral cells: dark vs blue light 458 nm
Procedure: (§1) Cells were grown in humidified incubators at 37° C. in 5% CO2. Murine MC3T3 osteoblast and NIH-3T3 fibroblast cells-used as non-tumor cell models-were cultured in a-MEM medium and DMEM medium supplemented with 10% fetal bovine serum (FBS) and 1% Penicillin/Streptomycin (P/S) antibiotics, respectively. Human T24 bladder, MGHU3 bladder, Scaber bladder, A549 lung, MCF7 breast, MiaPaCa2 pancreas cancer cells were cultured in DMEM medium supplemented with 10% FBS and 1% P/S antibiotics. […] Human Hela cervix and HepG2 liver cancer cells were cultured EMEM medium supplemented with 10% FBS and 1% P/S antibiotics.
(§2) MTT reagent (3-(4,5-dimethylthiazol-2-yl)-2,5-diphenyltetrazolium bromide) was used to determine cell death as originally described by Mosmann. Briefly, cells were seeded from 5,000 to 10,000 cells/well in 24-well plates (1 mL) depending on the cell type and allowed to attach overnight. The complexes were prepared in DMSO. The concentration of the complexes was calculated based on the elemental composition of the complexes determined by the elemental analyses. All cell viability experiments were carried out with a fixed concentration of 0.1% (v/v) DMSO. After 72 h of treatment, cells were incubated at 37° C. and 5% CO2 with 25 μL of MTT solution (5 mg/ml; Sigma-Aldrich) in 24-well plates for 3 to 4 h. After solubilization with 500 μL of DMSO, formazan was quantified spectrophotometrically with a microplate reader at 570 nm absorbance (ClarioSTAR, BMG LabTech). […] All the results were calculated from data obtained in at least three independent experiments performed in triplicate.
(§3) Two sets of experiments were conducted in parallel for each complex to be studied:
(§4) 1. The cells were incubated with the different complexes (in the dark) for 72 h.
(§5) 2. The cells were incubated for 8 h with the different complexes (in the dark), then irradiated for 10 min, followed by an incubation in the dark up to 72 h.

[2] = tested on: cancer cells (all tumor cell lines tested); assay: Cell viability assay (MTT), summary over the cancer cell lines tested; assay type: cell-based, Human; conditions: for GI50: blue light 458 nm, read-out: GI50 mean over cancer cells, irradiated; for PI values, mean over cancer cells: dark vs blue light 458 nm; for increase in cell toxicity in cancer cells compared to non-tumor models: irradiated conditions
Procedure: as §1, §2, §3, §4, §5

[3] = tested on: 22rV1 prostate cancer cells (PSMA-positive); assay: Cell viability assay (MTT), dark and blue light; assay type: cell-based, Human; conditions: for Photosensitizing index (PI): 22Rv1, dark vs blue light
Outline: (§6)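 Cells seeded 5,000–10,000/well, treated in 0.1% (v/v) DMSO either 72 h in dark or 8 h dark, 10 min 458 nm blue LED irradiation (9.6 W), then dark to 72 h. Viability by MTT, absorbance 570 nm; at least three independent experiments in triplicate.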

[4] = tested on: PC-3 prostate cancer cells (PSMA-negative); assay: Cell viability assay (MTT), dark and blue light; assay type: cell-based, Human; conditions: for Photosensitizing index (PI): PC3, dark vs blue light
Outline: as §6

[5] = tested on: C4-2B prostate cancer cells (PSMA-positive); assay: Cell viability assay (MTT), dark and blue light; assay type: cell-based, Human; conditions: for Photosensitizing index (PI): dark vs blue light; for SI (vs MC3T3) C4-2b Blue / SI (vs NIH-3T3) C4-2b Blue: blue light 458 nm
Outline: as §6

[6] = tested on: T24 bladder cancer cells; assay: Cell viability assay (MTT), dark and blue light; assay type: cell-based, Human; conditions: for GI50: read-out: GI50; for Photosensitizing index (PI): T24, dark vs blue light
Outline: (§7)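 MTT read-out at 570 nm after DMSO solubilization of formazan, 3–4 h MTT at 37 °C, 5% CO2. Treatment lasted 72 h, either fully in the dark or with 10 min irradiation after 8 h of dark incubation. Final DMSO fixed at 0.1% (v/v).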

[7] = tested on: A549 lung cancer cells; assay: Cell viability assay (MTT), dark and blue light; assay type: cell-based, Human; conditions: for GI50: read-out: GI50; for Photosensitizing index (PI): A549, dark vs blue light
Outline: as §7

[8] = tested on: MCF7 breast cancer cells; assay: Cell viability assay (MTT), dark and blue light; assay type: cell-based, Human; conditions: for Photosensitizing index (PI): MCF7, dark vs blue light; for GI50: read-out: GI50
Outline: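 Absorbance of MTT formazan at 570 nm gives viability after 72 h exposure to the complexes in 0.1% (v/v) DMSO. Irradiated wells got 10 min of 458 nm light after 8 h of dark incubation.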

[9] = 22Rv1, blue light, read-out: GI50
[10] = 8 h in the dark, blue light 458 nm 10 min, then dark up to 72 h, read-out: GI50 22Rv1 Blue
[11] = in the dark, 72 h, read-out: GI50 22Rv1 Dark
[12] = 8 h in the dark, blue light 458 nm 10 min, then dark up to 72 h, read-out: GI50 PC-3 Blue
[13] = PC3, blue light, read-out: GI50
[14] = in the dark, 72 h, read-out: GI50 PC-3 Dark
[15] = C4-2b, blue light, read-out: GI50

Structure (SMILES) | GI50 [1] [nM] | selectivity for cancer cells over non-tumor cells, in words [2] | GI50 [4, 13] [nM] | Photosensitizing index (PI) [4] | GI50 ([4]; PC3, dark, read-out: GI50) [nM] | SI (vs MC3T3) ([6]; T24, blue light) | SI (vs NIH-3T3) ([6]; T24, blue light) | GI50 ([6]; T24, blue light) [nM] | SI (vs NIH-3T3) ([6]; T24, dark) | Photosensitizing index (PI) [6] | GI50 ([7]; A549, blue light) [nM] | SI (vs MC3T3) ([7]; A549, dark) | Photosensitizing index (PI) [7] | mean PI value in NIH-3T3 and MC3T3 non-tumoral cells [1] [fold] | PI values, mean over cancer cells [2] [fold] | SI (vs NIH-3T3) ([4]; PC3, dark) | SI (vs NIH-3T3) ([8]; MCF7, blue light) | SI (vs NIH-3T3) ([8]; MCF7, dark) | Photosensitizing index (PI) [8] | GI50 ([8]; MCF7, dark) | other results
F[P-](F)(F)(F)(F)F.O=C(O)CC[C@H](NC(=O)N[C@@H](CCCCNC(=O)CCn1cc[n+]2[c]1[Ir-3]13([c]4ccccc4-c4c5ccccc5cc[n+]41)([c]1ccccc1-c1c4ccccc4cc[n+]13)[n+]1ccccc1-2)C(=O)O)C(=O)O [III-h] | 22800 | most selective effects under irradiated conditions | 680 | 31.2 | 21200 | – | – | – | – | – | – | – | – | – | – | – | – | – | – | – | GI50 [3, 9]: 140 nM; Photosensitizing index (PI) [3]: 29.3; GI50 ([3]; 22Rv1, dark, read-out: GI50): 4100 nM; GI50 [3, 10]: 140 nM; SI (vs NIH-3T3) 22Rv1 Blue ([3]; blue light 458 nm): 131.9; SI (vs MC3T3) 22Rv1 Dark ([3]; dark): 12.9; SI (vs NIH-3T3) 22Rv1 Dark ([3]; dark): >25; GI50 [3, 11]: 4100 nM; GI50 [4, 12]: 680 nM; SI (vs MC3T3) PC-3 Blue ([4]; blue light 458 nm): 12.2; SI (vs NIH-3T3) PC-3 Blue ([4]; blue light 458 nm): 28.0; GI50 [4, 14]: 21200 nM; GI50 ([5]; 8 h in the dark, blue light 458 nm 10 min, then dark up to 72 h, read-out: GI50 C4-2b Blue): 310 nM; GI50 [5, 15]: 310 nM; Photosensitizing index (PI) ([5]; C4-2b): 12.9; GI50 ([5]; C4-2b, dark, read-out: GI50): 4000 nM; SI (vs MC3T3) C4-2b Blue [5]: 27.0; SI (vs NIH-3T3) C4-2b Blue [5]: 61.9; SI (vs MC3T3) C4-2b Dark ([5]; dark): 13.0
F[P-](F)(F)(F)(F)F.O=C(O)CC[C@H](NC(=O)N[C@@H](CCCCNC(=O)CCn1cc[n+]2[c]1[Ir-3]13([c]4ccccc4-c4sc5ccccc5[n+]41)([c]1ccccc1-c1sc4ccccc4[n+]13)[n+]1ccccc1-2)C(=O)O)C(=O)O [III-k] | 22800 | most selective effects under irradiated conditions | 2100 | 4.6 | 9600 | – | – | – | – | – | – | – | – | – | – | – | – | – | – | – | GI50 [3, 9]: 390 nM; Photosensitizing index (PI) [3]: 13.1; GI50 ([3]; 22Rv1, dark, read-out: GI50): 5100 nM; GI50 [3, 10]: 8390 nM; SI (vs MC3T3) 22Rv1 Blue ([3]; blue light 458 nm): 87.1; SI (vs NIH-3T3) 22Rv1 Blue ([3]; blue light 458 nm): 77.3; SI (vs MC3T3) 22Rv1 Dark ([3]; dark): 18.8; GI50 [3, 11]: 5100 nM; GI50 [4, 12]: 2100 nM; SI (vs NIH-3T3) PC-3 Blue ([4]; blue light 458 nm): 14.3; SI (vs MC3T3) PC-3 Dark ([4]; dark): 9.9; GI50 [4, 14]: 9800 nM; GI50 [5, 15]: 410 nM; Photosensitizing index (PI) ([5]; C4-2b): 12.9; GI50 ([5]; C4-2b, dark, read-out: GI50): 5300 nM; SI (vs MC3T3) C4-2b Blue [5]: 83.3; SI (vs NIH-3T3) C4-2b Blue [5]: 73.9; SI (vs MC3T3) C4-2b Dark ([5]; dark): 17.9; GI50 ([5]; in the dark, 72 h, read-out: GI50 C4-2b Dark): 5300 nM
F[P-](F)(F)(F)(F)F.O=C(NCCCn1cc[n+]2[c]1[Ir-3]13([c]4ccccc4-c4c5ccccc5cc[n+]41)([c]1ccccc1-c1c4ccccc4cc[n+]13)[n+]1ccccc1-2)[c-]1cccc1.[Fe+2].c1cc[cH-]c1 [IV-h] | 4450 | most selective effects under irradiated conditions | 58 | 22.4 | 1300 | 45.0 | 44.0 | 100 | 10.2 | 13.0 | 270 | 3.4 | 18.9 | 2.8 | 20.1 | 10.2 | 15.7 | 2.2 | 21.4 | 6000 nM | GI50 ([6]; T24, dark): 1300 nM; GI50 [2]: 155 nM; increase in cell toxicity in cancer cells compared to non-tumor models [2]: 29 fold; SI (vs MC3T3) ([4]; PC3, blue light): 77.6; SI (vs MC3T3) ([8]; MCF7, dark): 2.9
F[P-](F)(F)(F)(F)F.O=C(NCCCn1cc[n+]2[c]1[Ir-3]13([c]4cccc5ccc6ccc[n+]1c6c45)([c]1cccc4ccc5ccc[n+]3c5c14)[n+]1ccccc1-2)[c-]1cccc1.[Fe+2].c1cc[cH-]c1 [IV-i] | – | – | 270 | 21.9 | – | 27.2 | 50.4 | 350 | 23.2 | 5.1 | 1000 | 2.2 | 4.6 | 2.8 | 1.6 | 7.0 | 28.7 | 7.8 | 8.5 | 5300 nM | SI (vs NIH-3T3) ([7]; A549, blue light): 17.8; GI50 ([7]; A549, dark): 4600 nM; SI (vs MC3T3) ([4]; PC3, dark): 1.7; SI (vs MC3T3) ([8]; MCF7, dark): 1.9
F[P-](F)(F)(F)(F)F.O=C(NCCCn1cc[n+]2[c]1[Ir-3]13([c]4c(sc5ccccc45)-c4cccc[n+]41)([c]1c(sc4ccccc14)-c1cccc[n+]13)[n+]1ccccc1-2)[c-]1cccc1.[Fe+2].c1cc[cH-]c1 [IV-j] | 8400 | most selective effects under irradiated conditions | – | 121.7 | 7300 | – | 108.5 | 130 | 22.7 | 21.5 | 370 | 2.5 | 17.6 | 2.8 | 39.8 | – | – | 9.5 | 15.7 | 6600 nM | GI50 ([6]; T24, dark): 2800 nM; SI (vs NIH-3T3) ([7]; A549, dark): 9.7; GI50 ([7]; A549, dark): 6500 nM; GI50 [2]: 228 nM; increase in cell toxicity in cancer cells compared to non-tumor models [2]: 39 fold; SI (vs MC3T3) ([4]; PC3, dark): 2.2; GI50 ([8]; MCF7, blue light): 720 nM and 420 nM
F[P-](F)(F)(F)(F)F.O=C(NCCCn1cc[n+]2[c]1[Ir-3]13([c]4ccccc4-c4sc5ccccc5[n+]41)([c]1ccccc1-c1sc4ccccc4[n+]13)[n+]1ccccc1-2)[c-]1cccc1.[Fe+2].c1cc[cH-]c1 [IV-k] | – | – | – | 7.9 | 1100 | 27.0 | – | – | 20.9 | 4.7 | 340 | 2.7 | 11.2 | 2.8 | 1.8 | 17.3 | 18.7 | 3.2 | 9.4 | 6800 nM and 5800 nM | SI (vs MC3T3) ([6]; T24, dark): 11.4; SI (vs MC3T3) ([7]; A549, blue light): 15.0; SI (vs NIH-3T3) ([7]; A549, blue light): 34.2; GI50 ([7]; A549, dark): 3800 nM; SI (vs MC3T3) ([4]; PC3, blue light): 37.0; SI (vs MC3T3) ([8]; MCF7, blue light): 8.2; GI50 ([8]; MCF7, blue light): 620 nM; SI (vs MC3T3) ([8]; MCF7, dark): 1.8
